Source: article PMC10814857, “Functional Classification and Interaction Selectivity Landscape of the Human SH3 Domain Superfamily” (Cells, 2024)
Read-outs that look alike come from different tables or passages of the source. Peptide text beside a SMILES is read from it.

How the values were obtained:
[1] = biological target: T1, NCK1-1 SH3 domain (aa 2-61) (Homo sapiens, UniProt P16333); experiment: Fluorescence polarization SH3 domain-PRP binding; conditions: FP, 0.2 µM fluorescein-labeled peptide, SH3 domain 0-200 µM, Tris/HCl pH 7.5, 25 °C, quadratic fit
T1 construct: 2-61; GST (N); made in house; host or cells: Escherichia coli CodonPlus, Rosetta, BL21(DE3)
Description: (§1) The interaction between fluorescein-labeled proline-rich peptides (0.2 µM) and increasing concentrations of SH3 domains (ranging from 0 to 200 µM) was measured in a buffer (containing 30 mM Tris/HCl (pH 7.5), 5 mM MgCl2, and 3 mM DTT at 25 °C) in a total volume of 200 µL using a Fluoromax 4 fluorimeter in polarization mode and a quartz glass fluorescence cuvette (Hellma Ultra-Micro Cuvette 105.250-QS, Thermo Fisher Scientific, Waltham, MA USA). Excitation was performed at 470 nm and emission was measured at 560 nm. Dissociation constants (Kd) were determined by fitting the concentration-dependent binding curve to a quadratic ligand binding equation.
Fluorescence polarization measurements were performed to determine the binding affinities of SH3 domain–PRP interaction pairs from the dot blot analysis. SH3 proteins were titrated at increasing concentrations against fluorescent PRPs, which were kept at a constant concentration of 0.2 µM. GRB2-2^W193K, which is defective in the binding of PRPs such as RP1, was used as a negative control as previously described. […] The resulting data (Figure S6) allowed the evaluation of equilibrium dissociation constants (Kd) for 45 interactions between the SH3 domains and the PRPs (Figure 2B; Table S6).
Figure S6. Interactions of the SH3 domains with fluorescent PRPs measured by fluorescence polarization.
Fluorescent peptides (0.2 µM) were titrated with increasing concentrations of the corresponding SH3 domains.
GRB2-2W193K, defective in the binding of PRPs such as RP1, was used as a negative control as previously described. The x-axis represents SH3 domain concentrations as GST fusion proteins in µM, while the y-axis represents fluorescence polarization. The equilibrium dissociation constants (Kd) for the respective measurements were determined by fitting the titration curves to a quadratic ligand-binding equation (solid lines). All Kd values are […]
Error bars are derived from the fitting errors.

[2] = biological target: T2, NCK1-3Set-2 (N225E, W229G, K244E) SH3 domain (Homo sapiens, UniProt P16333, K244E/N225E/W229G); experiment: Fluorescence polarization, SH3 domain mutant; assay type: binding; conditions: NCK1-3 Set-2 mutant, FP, 0.2 µM fluorescent peptide, quadratic fit
T2 construct: 190–252; GST (N); made in house; host or cells: Escherichia coli (CodonPlus, Rosetta, BL21(DE3)), pGEX4-T1
Description: as §1
(§2) To better understand the role of the residues of SH3 domains in selective binding to PRPs, we have generated a multiple sequence alignment (Figure S7). It highlights the conserved and variable residues that are likely to be critical for the selectivity and affinity of the SH3 domain–PRM interactions. […] Two different sets of mutations were generated by substituting a combination of amino acids from ARHGAP12 and NCK1-3 for ABL2 and BIN1 and vice versa (Figure 3A; Table S1).
(§3) Figure S8. Mutational analysis of the SH3-fluorescent PRPs interactions using fluorescence polarization.
(§4) Fluorescent peptides (0.2 µM) were titrated with increasing concentrations of the corresponding SH3 domain mutants (see Figure 3A and Table S1). The x-axis represents SH3 domain concentrations as GST fusion proteins in µM, while the y-axis represents fluorescence polarization. The equilibrium dissociation constants (Kd) for the respective measurements were determined by fitting the titration curves to a quadratic ligand-binding equation […]
(§5) (solid lines). Error bars are derived from the fitting errors.
(§6) (1 picture or pasted object on this page, not shown here)

[3] = biological target: T3, ARHGAP12Set-1 (K28S, R30N, F62G, Y63W) SH3 domain (Homo sapiens, UniProt Q8IWW6, F62G/K28S/R30N/Y63W); experiment: Fluorescence polarization, SH3 domain mutant; assay type: binding; conditions: ARHGAP12 Set-1 mutant; FP, 0.2 µM fluorescent peptide, quadratic fit
T3 construct: 12-74; GST (N); made in house; host or cells: Escherichia coli (CodonPlus, Rosetta, BL21(DE3)), pGEX4-T1
T3 sequence (Q8IWW6 12-74 K28S/R30N/F62G/Y63W): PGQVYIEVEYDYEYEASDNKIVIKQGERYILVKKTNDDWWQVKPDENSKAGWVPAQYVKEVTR
Description: as §1, §2, §3, §4, §5, §6

SMILES | Kd ([1]; read-out: Kd) [µM] | further results
CC(C)C[C@H](NC(=O)[C@@H](NC(=O)[C@@H](N)C(C)C)[C@@H](C)O)C(=O)N1CCC[C@H]1C(=O)N[C@@H](Cc1c[nH]cn1)C(=O)NCC(=O)N1CCC[C@H]1C(=O)N[C@@H](CCCNC(=N)N)C(=O)N[C@@H](CO)C(=O)N[C@@H](C)C(=O)O [Peptide P2] (H-VTLPHGPRSA-OH) | > 200 | –
CC[C@H](C)[C@H](NC(=O)[C@H](CCCCN)NC(=O)[C@H](CO)NC(=O)[C@@H]1CCCN1C(=O)[C@H](CO)NC(=O)[C@H](CO)NC(=O)[C@H](CCC(=O)O)NC(=O)[C@H](C)NC(=O)[C@@H]1CCCN1C(=O)[C@H](C)NC(=O)[C@H](CO)NC(=O)[C@H](CCC(=O)O)NC(=O)[C@@H]1CCCN1C(=O)[C@H](CCCNC(=N)N)NC(=O)[C@H](CCCNC(=N)N)NC(=O)[C@H](CCCNC(=N)N)NC(=O)[C@@H]1CCCN1C(=O)[C@@H]1CCCN1C(=O)[C@@H](NC(=O)[C@@H]1CCCN1C(=O)[C@@H]1CCCN1C(=O)[C@@H]1CCCN1C(=O)[C@@H](NC(=O)[C@@H]1CCCN1C(=O)[C@@H](NC(=O)[C@@H](N)CCC(=O)O)C(C)C)C(C)C)C(C)C)C(=O)O [Peptide P3] (H-EVPVPPPVPPRRRPESAPAESSPSKI-OH) | > 200 | –
CC[C@H](C)[C@H](NC(=O)[C@H](Cc1c[nH]cn1)NC(=O)[C@@H](N)CCC(N)=O)C(=O)N1CCC[C@H]1C(=O)N[C@@H](CCCCN)C(=O)N[C@@H](CC(C)C)C(=O)N1CCC[C@H]1C(=O)N1CCC[C@H]1C(=O)N[C@@H](CCCCN)C(=O)N[C@H](C(=O)N[C@@H](Cc1ccc(O)cc1)C(=O)O)[C@@H](C)O [Peptide P10] (H-QHIPKLPPKTY-OH; N-terminus and C-terminus assumed) | > 200 | –
CC[C@H](C)[C@H](N)C(=O)N[C@@H](CO)C(=O)N[C@@H](CC(=O)O)C(=O)N1CCC[C@H]1C(=O)N1CCC[C@H]1C(=O)N[C@@H](CCC(=O)O)C(=O)N[C@@H](CO)C(=O)N1CCC[C@H]1C(=O)N1CCC[C@H]1C(=O)N[C@@H](CC(C)C)C(=O)N[C@@H](CC(C)C)C(=O)N1CCC[C@H]1C(=O)N1CCC[C@H]1C(=O)N[C@@H](CCCNC(=N)N)C(=O)N[C@@H](CCC(=O)O)C(=O)N1CCC[C@H]1C(=O)N[C@H](C(=O)N[C@@H](CCCNC(=N)N)C(=O)N[C@H](C(=O)N1CCC[C@H]1C(=O)N[C@@H](CC(=O)O)C(=O)N[C@H](C(=O)O)C(C)C)[C@@H](C)O)C(C)C [Peptide P5] (H-ISDPPESPPLLPPREPVRTPDV-OH) | > 200 | –
CC(C)[C@H](NC(=O)[C@@H]1CCCN1C(=O)[C@@H]1CCCN1C(=O)[C@H](C)NC(=O)[C@H](CCC(=O)O)NC(=O)[C@H](CS)NC(=O)[C@@H](N)CCCNC(=N)N)C(=O)N1CCC[C@H]1C(=O)N1CCC[C@H]1C(=O)N[C@@H](CCCNC(=N)N)C(=O)N[C@@H](CCCNC(=N)N)C(=O)N[C@@H](CCC(=O)O)C(=O)N[C@@H](CCCNC(=N)N)C(=O)NCC(=O)O [RP2, reference compound] (H-RCEAPPVPPRRERG-OH) | > 200 | –
CC(C)C[C@H](NC(=O)[C@@H]1CCCN1C(=O)[C@@H](NC(=O)[C@H](CCCNC(=N)N)NC(=O)[C@@H]1CCCN1C(=O)[C@H](CO)NC(=O)[C@H](CC(N)=O)NC(=O)[C@@H]1CCCN1C(=O)[C@H](C)NC(=O)[C@@H](N)CO)[C@@H](C)O)C(=O)N[C@H](C(=O)N1CCC[C@H]1C(=O)N1CCC[C@H]1C(=O)N1CCC[C@H]1C(=O)N[C@@H](C)C(=O)N[C@@H](CO)C(=O)O)[C@@H](C)O [Peptide P1] (H-SAPNSPRTPLTPPPAS-OH) | > 200 | –
C[C@H](N)C(=O)N[C@@H](Cc1ccccc1)C(=O)N[C@@H](Cc1ccccc1)C(=O)N1CCC[C@H]1C(=O)N[C@@H](CC(N)=O)C(=O)N[C@@H](CO)C(=O)N1CCC[C@H]1C(=O)N[C@@H](CO)C(=O)N1CCC[C@H]1C(=O)N[C@@H](Cc1ccccc1)C(=O)N[C@H](C(=O)N1CCC[C@H]1C(=O)N1CCC[C@H]1C(=O)N1CCC[C@H]1C(=O)N1CCC[C@H]1C(=O)N[C@@H](CCC(N)=O)C(=O)N[C@H](C(=O)N1CCC[C@H]1C(=O)N[C@@H](CO)C(=O)N1CCC[C@H]1C(=O)N[C@@H](Cc1c[nH]cn1)C(=O)NCC(=O)N[C@H](C(=O)O)[C@@H](C)O)[C@@H](C)O)[C@@H](C)O [Peptide P7] (H-AFFPNSPSPFTPPPPQTPSPHGT-OH) | > 200 | Kd [3]: 23 µM

Continued, in another order:

Kd ([1]; read-out: Kd) [µM] | SMILES | further results
> 200 | CC(C)[C@H](N)C(=O)N1CCC[C@H]1C(=O)N[C@H](C(=O)N1CCC[C@H]1C(=O)N1CCC[C@H]1C(=O)N1CCC[C@H]1C(=O)N[C@H](C(=O)N1CCC[C@H]1C(=O)N1CCC[C@H]1C(=O)N[C@@H](CCCNC(=N)N)C(=O)N[C@@H](CCCNC(=N)N)C(=O)N[C@@H](CCCNC(=N)N)C(=O)O)C(C)C)C(C)C [RP1, reference compound] | –
> 200 | CC[C@H](C)[C@H](NC(=O)[C@H](C)NC(=O)[C@@H]1CCCN1C(=O)[C@@H]1CCCN1C(=O)[C@H](CO)NC(=O)[C@H](CC(=O)O)NC(=O)[C@@H](N)CC(C)C)C(=O)N1CCC[C@H]1C(=O)N1CCC[C@H]1C(=O)N[C@@H](CCCNC(=N)N)C(=O)N[C@@H](CCC(N)=O)C(=O)N1CCC[C@H]1C(=O)N[C@H](C(=O)N[C@@H](CO)C(=O)N[C@@H](CCCCN)C(=O)O)[C@@H](C)O [Peptide P4] (H-LDSPPAIPPRQPTSK-OH) | –
> 200 | CC[C@H](C)[C@H](N)C(=O)N[C@@H](C)C(=O)NCC(=O)N1CCC[C@H]1C(=O)N1CCC[C@H]1C(=O)N[C@H](C(=O)N1CCC[C@H]1C(=O)N1CCC[C@H]1C(=O)N[C@@H](CCCNC(=N)N)C(=O)N[C@@H](CCC(N)=O)C(=O)N[C@@H](CO)C(=O)O)C(C)C [Peptide P9] (H-IAGPPVPPRQS-OH) | Kd [1]: do not bind; Kd [2]: did not differ from the NCK1-3^wt; Kd ([2]; read-out: Kd): 0.8 µM
> 200 | CC(C)C[C@H](NC(=O)[C@H](Cc1c[nH]cn1)NC(=O)[C@H](CC(C)C)NC(=O)[C@@H]1CCCN1C(=O)[C@H](CO)NC(=O)[C@H](CO)NC(=O)[C@@H](N)CO)C(=O)N[C@@H](CCC(N)=O)C(=O)N1CCC[C@H]1C(=O)N1CCC[C@H]1C(=O)N1CCC[C@H]1C(=O)N[C@@H](CC(C)C)C(=O)NCC(=O)N[C@@H](CCCCN)C(=O)N[C@@H](CCCCN)C(=O)O [Peptide P6] (H-SSSPLHLQPPPLGKK-OH; N-terminus and C-terminus assumed) | –
> 200 | CC(C)C[C@H](NC(=O)[C@@H]1CCCN1C(=O)[C@@H]1CCCN1C(=O)[C@H](CO)NC(=O)[C@@H]1CCCN1C(=O)[C@H](CC(C)C)NC(=O)[C@H](Cc1c[nH]cn1)NC(=O)[C@@H](N)CCCNC(=N)N)C(=O)N[C@H](C(=O)N[C@@H](CCC(N)=O)C(=O)O)[C@@H](C)O [Peptide P8] (H-RHLPSPPLTQ-OH; N-terminus and C-terminus assumed) | –
